Test system: Lactobacillus sakei Probio-65
Assay: Antibiotic sensitivity test of the strain against fourteen antibiotics
Assay type: cell-based
Settings: for Diameter: antibiotic amount 2 to 250 μg depending on antibiotic, compared with Resistance (mm); for Results: antibiotic amount (μg), resistant or susceptible by diameter (mm)

CN(C)c1ccc(O)c2c1C[C@H]1C[C@H]3[C@H](N(C)C)C(O)=C(C(N)=O)C(=O)[C@@]3(O)C(O)=C1C2=O [Minocyclin]
Diameter: 26 mm
Results: S

Neomycin
Diameter: 9 mm
Results: R

CC1(C)S[C@@H]2[C@H](NC(=O)Cc3ccccc3)C(=O)N2[C@H]1C(=O)O [Penicillin G]
Diameter: 20 mm

Cc1noc(NS(=O)(=O)c2ccc(N)cc2)c1C [Sulfisoxzazole]
Diameter: 0 mm
Results: R

Gentamicin
Diameter: 9 mm
Results: R
